Assay results as given in ChEMBL document CHEMBL5724914, “Linking interpersonal differences in gut microbiota composition and drug biotransformation activity” (2024).

Legend:
[1] = The drug is tested on Z-012 corresponding to metagenome with ENA study accession number: PRJEB37062 and ENA sample accession number: ERS12561812 for biotransformation under anaerobic condition. The drug concentrations were measured over 9 timepoints collected between 0 and 24 hours of incubation by liquid-chromatography-coupled mass spectrometry (LC–MS); conditions: 2 µM
[2] = human gut metagenome, 24 h, 2 µM
[3] = human gut metagenome, 24 h, 2 µM; remark: listed apart in the source
[4] = (§1) The drug is tested on Z-029 corresponding to rat gut metagenome with ENA study accession number: PRJEB37062 and ENA sample accession number: ERS12561828 for biotransformation under anaerobic condition. The drug concentrations were measured over 9 timepoints collected between 0 and 24 hours of incubation by liquid-chromatography-coupled mass spectrometry (LC–MS); conditions: 2 µM
[5] = human gut metagenome, 24 h, 2 µM; remark: listed apart in the source
[6] = as §1, with “Z-019” for “Z-029”, “ERS12561818” for “ERS12561828”; conditions: 2 µM
[7] = human gut metagenome, 24 h, 2 µM; remark: listed apart in the source
[8] = as §1, with “on Z-030” for “on Z-029”, “to mouse” for “to rat”, “number: ERS12561829” for “number: ERS12561828”; conditions: 2 µM
[9] = human gut metagenome, 24 h, 2 µM; remark: listed apart in the source
[10] = as §1, with “on WLS-039” for “on Z-029”, “to human” for “to rat”, “number: ERS12561746” for “number: ERS12561828”; conditions: 2 µM
[11] = as §1, with “on WLS-310” for “on Z-029”, “to human” for “to rat”, “number: ERS12561785” for “number: ERS12561828”; conditions: 2 µM
[12] = as §1, with “on WLS-090” for “on Z-029”, “to human” for “to rat”, “number: ERS12561753” for “number: ERS12561828”; conditions: 2 µM
[13] = human gut metagenome, 24 h, 2 µM; remark: listed apart in the source
[14] = human gut metagenome, 24 h, 2 µM; remark: listed apart in the source
[15] = human gut metagenome, 24 h, 2 µM; remark: listed apart in the source
[16] = human gut metagenome, 24 h, 2 µM; remark: listed apart in the source
[17] = human gut metagenome, 24 h, 2 µM; remark: listed apart in the source
[18] = as §1, with “on WLS-069” for “on Z-029”, “to human” for “to rat”, “number: ERS12561748” for “number: ERS12561828”; conditions: 2 µM
[19] = human gut metagenome, 24 h, 2 µM; remark: listed apart in the source
[20] = human gut metagenome, 24 h, 2 µM; remark: listed apart in the source
Note: call rule not given here.

SMILES	Bacterial Biotransformation [1]	Bacterial Biotransformation [2]	Bacterial Biotransformation [3]	Bacterial Biotransformation [4]	Bacterial Biotransformation [5]	Bacterial Biotransformation [6]	Bacterial Biotransformation [7]	Bacterial Biotransformation [8]	Bacterial Biotransformation [9]	Bacterial Biotransformation [10]	Bacterial Biotransformation [11]	Bacterial Biotransformation [12]	Bacterial Biotransformation [13]	Bacterial Biotransformation [14]	Bacterial Biotransformation [15]	Bacterial Biotransformation [16]	Bacterial Biotransformation [17]	Bacterial Biotransformation [18]	Bacterial Biotransformation [19]	Bacterial Biotransformation [20]
CCCN1C[C@H](CSC)C[C@@H]2c3cccc4[nH]cc(c34)C[C@H]21.CS(=O)(=O)O [PERGOLIDE MESYLATE]	Compound NOT metabolized	Compound NOT metabolized	Compound NOT metabolized	Compound NOT metabolized	Compound NOT metabolized	Compound NOT metabolized	Compound NOT metabolized	Compound NOT metabolized	Compound NOT metabolized	Compound NOT metabolized	Compound NOT metabolized	Compound NOT metabolized	Compound NOT metabolized	Compound NOT metabolized	Compound NOT metabolized	Compound NOT metabolized	Compound NOT metabolized	Compound NOT metabolized	Compound NOT metabolized	Compound NOT metabolized
CC(C)(C)N.CCC[C@H](N[C@@H](C)C(=O)N1[C@H](C(=O)O)C[C@@H]2CCCC[C@@H]21)C(=O)OCC [PERINDOPRIL ERBUMINE]	Compound metabolized	Compound metabolized	Compound metabolized	Compound NOT metabolized	Compound metabolized	Compound NOT metabolized	Compound metabolized	Compound NOT metabolized	Compound metabolized	Compound NOT metabolized	Compound metabolized	Compound metabolized	Compound metabolized	Compound metabolized	Compound NOT metabolized	Compound NOT metabolized	Compound metabolized	Compound metabolized	Compound metabolized	Compound metabolized
COc1cc(NC(C)CCCN)c2ncccc2c1.O=P(O)(O)O.O=P(O)(O)O (stereo not given) [PRIMAQUINE PHOSPHATE]	Compound NOT metabolized	Compound metabolized	Compound NOT metabolized	Compound NOT metabolized	Compound NOT metabolized	Compound NOT metabolized	Compound metabolized	Compound NOT metabolized	Compound NOT metabolized	Compound metabolized	Compound NOT metabolized	Compound metabolized	Compound NOT metabolized	Compound NOT metabolized	Compound NOT metabolized	Compound NOT metabolized	Compound NOT metabolized	Compound metabolized	Compound metabolized	Compound NOT metabolized
C=C[C@H]1CN2CC[C@H]1C[C@H]2[C@H](O)c1ccnc2ccc(OC)cc12.C=C[C@H]1CN2CC[C@H]1C[C@H]2[C@H](O)c1ccnc2ccc(OC)cc12.O.O.O=S(=O)(O)O [QUININE SULFATE]	Compound NOT metabolized	Compound metabolized	Compound NOT metabolized	Compound NOT metabolized	Compound metabolized	Compound NOT metabolized	Compound NOT metabolized	Compound NOT metabolized	Compound metabolized	Compound NOT metabolized	Compound metabolized	Compound metabolized	Compound NOT metabolized	Compound NOT metabolized	Compound metabolized	Compound NOT metabolized	Compound NOT metabolized	Compound NOT metabolized	Compound metabolized	Compound NOT metabolized
O=C(NC(Cc1cc(=O)[nH]c2ccccc12)C(=O)O)c1ccc(Cl)cc1 (stereo not given) [REBAMIPIDE]	Compound NOT metabolized	Compound NOT metabolized	Compound metabolized	Compound NOT metabolized	Compound NOT metabolized	Compound NOT metabolized	Compound metabolized	Compound NOT metabolized	Compound NOT metabolized	Compound NOT metabolized	Compound NOT metabolized	Compound NOT metabolized	Compound NOT metabolized	Compound metabolized	Compound NOT metabolized	Compound NOT metabolized	Compound NOT metabolized	Compound NOT metabolized	Compound NOT metabolized	Compound metabolized
CCOc1cc(CC(=O)N[C@@H](CC(C)C)c2ccccc2N2CCCCC2)ccc1C(=O)O [REPAGLINIDE]	Compound metabolized	Compound metabolized	Compound metabolized	Compound NOT metabolized	Compound metabolized	Compound NOT metabolized	Compound metabolized	Compound NOT metabolized	Compound metabolized	Compound metabolized	Compound metabolized	Compound metabolized	Compound metabolized	Compound NOT metabolized	Compound metabolized	Compound metabolized	Compound metabolized	Compound metabolized	Compound metabolized	Compound metabolized
CC(N)C12CC3CC(CC(C3)C1)C2 (stereo not given) [RIMANTADINE]	Compound NOT metabolized	Compound NOT metabolized	Compound NOT metabolized	Compound NOT metabolized	Compound NOT metabolized	Compound NOT metabolized	Compound NOT metabolized	Compound NOT metabolized	Compound NOT metabolized	Compound NOT metabolized	Compound NOT metabolized	Compound NOT metabolized	Compound NOT metabolized	Compound NOT metabolized	Compound NOT metabolized	Compound NOT metabolized	Compound NOT metabolized	Compound NOT metabolized	Compound NOT metabolized	Compound NOT metabolized
CCN(C)C(=O)Oc1cccc([C@H](C)N(C)C)c1.O=C(O)C(O)C(O)C(=O)O [RIVASTIGMINE TARTRATE]	Compound NOT metabolized	Compound NOT metabolized	Compound NOT metabolized	Compound NOT metabolized	Compound NOT metabolized	Compound NOT metabolized	Compound NOT metabolized	Compound NOT metabolized	Compound NOT metabolized	Compound metabolized	Compound NOT metabolized	Compound NOT metabolized	Compound NOT metabolized	Compound NOT metabolized	Compound metabolized	Compound metabolized	Compound NOT metabolized	Compound NOT metabolized	Compound NOT metabolized	Compound NOT metabolized
